Results from patent US9447157B2, “Nitration shielding peptides and methods of use thereof” (Augusta University Research Institute, Inc., priority 2013, dated 2016).

Molecular target: T1, PKG-1α (Homo sapiens, UniProt Q13976)
T1 construct: transfected with an expression plasmid containing a full length WT-PKG-1α cDNA; made in house; host or cells: HEK-293T (methods); the results paragraph b527 says PASMC
T1 sequence (Q13976 2-671): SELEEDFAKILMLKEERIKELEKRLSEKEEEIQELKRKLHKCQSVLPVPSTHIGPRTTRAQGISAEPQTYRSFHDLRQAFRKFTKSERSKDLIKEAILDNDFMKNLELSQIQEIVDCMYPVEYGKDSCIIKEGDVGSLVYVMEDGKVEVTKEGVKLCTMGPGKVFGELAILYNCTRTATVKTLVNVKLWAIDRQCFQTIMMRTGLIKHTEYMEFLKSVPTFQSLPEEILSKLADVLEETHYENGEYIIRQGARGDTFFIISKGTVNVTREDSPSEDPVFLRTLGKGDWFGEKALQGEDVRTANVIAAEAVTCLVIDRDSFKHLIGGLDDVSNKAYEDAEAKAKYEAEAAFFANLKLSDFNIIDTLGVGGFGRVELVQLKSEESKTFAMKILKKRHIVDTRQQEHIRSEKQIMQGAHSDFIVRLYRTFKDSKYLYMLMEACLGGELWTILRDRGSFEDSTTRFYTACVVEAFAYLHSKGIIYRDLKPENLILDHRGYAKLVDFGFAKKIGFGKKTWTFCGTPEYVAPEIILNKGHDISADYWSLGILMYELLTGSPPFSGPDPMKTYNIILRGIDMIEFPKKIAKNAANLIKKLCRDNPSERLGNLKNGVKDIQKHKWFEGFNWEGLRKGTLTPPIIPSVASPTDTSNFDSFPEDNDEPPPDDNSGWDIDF
Test: [3H]cGMP binding assay
Conditions: SIN-1 500 μM 30 min
Experimental: HEK-293T cells were transiently transfected with either the WT-PKG-1α or the Y247FPKG-1α cDNA using Effectene transfection reagent (Qiagen), according to the manufacturer's instructions. Briefly, the cells were split the day before the transfection to low cell densities (25%) and were transfected 24 h later. After 48 h of transfection, the cells were incubated in DMEM serum free media containing 1% FBS and antibiotics for 4 h and then treated with or without SIN-1 (500 μM), for 30 min. This method produced an approximate 70% transfection efficiency of HEK-293T cells, as measured using green fluorescent protein vectors. […]
The batches of supernatant were pooled, and 2 μg of anti-PKG-1α antibody per mg of protein were added to the extract and rocked at 4° C. […] After 15 min of agitation at 4° C., the beads were pelleted by centrifugation, and the supernatant containing the PKG-1α protein was collected, quantified using Bradford reagent, and stored at −80° C.
To assay the binding of cGMP to WT- and Y247F-PKG-1α the enzymes were saturated with cGMP by incubating 50 μl aliquots of the diluted PKG constructs for 60 min at room temperature with 50 μl of [^3H]cGMP and 150 μl of cGMP-binding assay mixture (25 mM K2HPO4, 25 mM KH2PO4, 1 mM EDTA, pH 6.8, 2M NaCl, 200 μM 3-isobutyl-1-methylxanthine). […] The dissociation constant (Kd) values were determined using GraphPad Prism graphics.

Substance: 3-morpholinosydnonimine N-ethylcarbamide [SIN-1]
- Maximal [3H]cGMP binding to WT-PKG-1α: significantly attenuated
